According to ChEMBL document CHEMBL1154921, “Phenylpropanoyl esters from Horseweed (Conyza canadensis) and their inhibitory effects on catecholamine secretion” (J Nat Prod, 2010):

Experiments:
[1] = Inhibition of acetylcholine-induced catecholamine secretion in bovine chromaffin cells after 10 mins by HPLC coupled electrochemical detector; assay type: functional, cell-based; conditions: Bos taurus
[2] = Inhibition of acetylcholine-induced calcium flux in calcium 4 reagent loaded bovine chromaffin cells at 1 to 100 uM; assay type: functional; conditions: Bos taurus

COC(=O)[C@]12C[C@@H](OC(=O)/C=C/c3ccc(O)c(OC)c3)[C@@H](O)[C@H](O1)[C@@H](COC(=O)/C=C/c1ccc(O)c(O)c1)O2 (relative stereo)
IC50 [1]: 94.7 µM | IC50 [2]: 59.8 µM
